Target: T1, human M1 receptor (hCHRM1) (Homo sapiens, UniProt P11229)
T1 construct: expressed in transfected cells
T1 sequence (P11229 1-460): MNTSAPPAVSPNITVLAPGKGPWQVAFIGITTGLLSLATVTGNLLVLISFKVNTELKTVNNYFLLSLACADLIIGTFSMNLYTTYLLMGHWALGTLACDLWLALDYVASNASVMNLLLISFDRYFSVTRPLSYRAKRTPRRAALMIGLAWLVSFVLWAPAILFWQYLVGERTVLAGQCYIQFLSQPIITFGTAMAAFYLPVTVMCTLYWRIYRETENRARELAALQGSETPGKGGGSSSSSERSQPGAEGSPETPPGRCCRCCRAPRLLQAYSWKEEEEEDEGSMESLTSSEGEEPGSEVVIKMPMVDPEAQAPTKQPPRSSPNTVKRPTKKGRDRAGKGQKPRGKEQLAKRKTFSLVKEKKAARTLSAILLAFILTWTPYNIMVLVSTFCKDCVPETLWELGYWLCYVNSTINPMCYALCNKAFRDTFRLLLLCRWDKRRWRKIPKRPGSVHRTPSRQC
Experiment: Measurement of M1 receptor positive allosteric modulator (M1PAM) activity, Ca2+ fluorescence by FLIPRtetra (Experimental Example 1)
Type: cell-based
Details: for activity (%) at 10 μM: 10 μM test compound, 100% = acetylcholine 1 μM, 0% = DMSO; for EC50: inflection point of concentration-dependent curve, in presence of acetylcholine at EC20 (0.8-1.0 nM), CHO-K1 cells expressing hCHRM1, read-out: IP value
Protocol: Measurement of M1 Receptor Positive Allosteric Modulator (M1PAM) Activity
The activity of a test compound in the presence of acetylcholine at EC20 concentration (final concentration 0.8-1.0 nM), which affords an action corresponding to about 20% of the maximum activity, was measured as PAM activity. The method is as follows. CHO-K1 cells stably expressing a human M1 receptor (hCHRM1) were plated on a 384-well black clear bottom plate (BD Falcon) at 5,000 cells/well, and cultured in an incubator at 37° C., 5% CO2 for 1 day. The medium in the cell plate was removed, and a dye solution (prepared by adding Recording medium (DOJINDO LABORATORIES) to a final concentration of 1×concentration, Fluo-4 AM (DOJINDO LABORATORIES) to a final concentration of 2.5 μg/mL, Pluronic F127 (DOJINDO LABORATORIES) to a final concentration of 0.08%, and probenecid (DOJINDO LABORATORIES) to a final concentration of 1.25 mM to assay buffer (HBSS (Invitrogen), 20 mM HEPES (Invitrogen), 0.1% BSA (Wako Pure Chemical Industries, Ltd.))) was added at 30 μL/well. The cells were left standing in the incubator at 37° C., 5% CO2 for 30 min, and further left standing at room temperature for 30 min. A test compound prepared by diluting with assay buffer containing 3.2-4.0 nM acetylcholine was added at 10 μL/well, and the fluorescence was measured by FLIPRtetra (Molecular Devices) for 1 min every 1 second. With the definition that the amount of change in the fluorescence on addition of acetylcholine (final concentration 1 μM) is 100% and that on addition of DMSO instead of a test compound is 0%, the activity (%) of the test compound was calculated, and the inflection point in the concentration-dependent curve of the test compound was calculated as IP values.

| activity (%) at 10 μM [%] | EC50 [µM] | Structure (SMILES) |
| --- | --- | --- |
| 97 | 0.078 | O=C1c2cc(CN3CCC(F)CC3)c3ccccc3c2OCN1[C@H]1CCC[C@@H]1O [Example 79, 6-((4-fluoropiperidin-1-yl)methyl)-3-((1S,2S)-2-hydroxycyclopentyl)-2,3-dihydro-4H-naphtho[2,1-e][1,3]oxazin-4-one] |
| 104 | 0.063 | O=C1c2cc(CN3CCOCC3)c3ccccc3c2OCN1[C@H]1CCC[C@@H]1O [Example 77, 3-((1S,2S)-2-hydroxycyclopentyl)-6-(morpholin-4-ylmethyl)-2,3-dihydro-4H-naphtho[2,1-e][1,3]oxazin-4-one] |
| 104 | 0.0085 | Cc1c(Cc2ccc(-n3cccn3)cc2)cc2c(c1F)OCN([C@H]1CCC[C@@H]1O)C2=O [Example 5, 8-fluoro-3-((1S,2S)-2-hydroxycyclopentyl)-7-methyl-6-(4-(1H-pyrazol-1-yl)benzyl)-2,3-dihydro-4H-1,3-benzoxazin-4-one] |
| 90 | 0.048 | Cc1ccc(Cc2cc3c(c4ccccc24)OCN(CC2CCCO2)C3=O)cn1 (stereo not shown) [Example 68, 6-((6-methylpyridin-3-yl)methyl)-3-(tetrahydrofuran-2-ylmethyl)-2,3-dihydro-4H-naphtho[2,1-e][1,3]oxazin-4-one] |
| 92 | 0.019 | COc1c(Cc2ccc(-n3cccn3)nc2)cc2c(c1F)OCN([C@H]1CCC[C@@H]1O)C2=O (relative stereo) [Example 15, 8-fluoro-3-(trans-2-hydroxycyclopentyl)-7-methoxy-6-((6-(1H-pyrazol-1-yl)pyridin-3-yl)methyl)-2,3-dihydro-4H-1,3-benzoxazin-4-one] |
| 109 | 0.0091 | Cc1c(Cc2ccc(Cl)nc2)cc2c(c1C)OCN([C@H]1COCC[C@@H]1O)C2=O [Example 10, 1,5-anhydro-2-(6-((6-chloropyridin-3-yl)methyl)-7,8-dimethyl-4-oxo-2H-1,3-benzoxazin-3(4H)-yl)-2,4-dideoxy-L-threo-pentitol] |
| 108 | 0.037 | Cc1ccc(Cc2cc3c(c(F)c2C)OCN([C@H]2COCC[C@@H]2O)C3=O)cn1 [Example 32, 1,5-anhydro-2,4-dideoxy-2-(8-fluoro-7-methyl-6-((6-methylpyridin-3-yl)methyl)-4-oxo-2H-1,3-benzoxazin-3(4H)-yl)-L-threo-pentitol] |
| 108 | 0.008 | Cc1c(Cc2ccc(-c3cnn(C)c3)nc2)cc2c(c1C)OCN([C@H]1CCCC[C@@H]1O)C2=O (relative stereo) [Example 49, 3-(trans-2-hydroxycyclohexyl)-7,8-dimethyl-6-((6-(1-methyl-1H-pyrazol-4-yl)pyridin-3-yl)methyl)-2,3-dihydro-4H-1,3-benzoxazin-4-one] |
| 104 | 0.052 | N#CC1CCN(Cc2cc3c(c4ccccc24)OCN([C@H]2CCC[C@@H]2O)C3=O)CC1 [Example 70, 1-((3-((1S,2S)-2-hydroxycyclopentyl)-4-oxo-3,4-dihydro-2H-naphtho[2,1-e][1,3]oxazin-6-yl)methyl)piperidine-4-carbonitrile] |
| 92 | 0.023 | Cc1cc2c(cc1Cc1ccc(-c3cn(C)nn3)cc1)C(=O)N(CC1CCCO1)CO2 (stereo not shown) [Example 61, 7-methyl-6-(4-(1-methyl-1H-1,2,3-triazol-4-yl)benzyl)-3-(tetrahydrofuran-2-ylmethyl)-2,3-dihydro-4H-1,3-benzoxazin-4-one] |
| 102 | 0.06 | N#CC1CCN(Cc2cc3c(c4ccccc24)OCN([C@H]2CCC[C@@H]2O)C3=O)C1 (stereo partly drawn) [Example 75, 1-((3-((1S,2S)-2-hydroxycyclopentyl)-4-oxo-3,4-dihydro-2H-naphtho[2,1-e][1,3]oxazin-6-yl)methyl)pyrrolidine-3-carbonitrile (diastereoisomer)] |
| 106 | 0.0025 | Cc1ccc(Cc2cc3c(c(Cl)c2C)OCN([C@H]2CCCC[C@@H]2O)C3=O)cn1 [Example 2, 8-chloro-3-((1S,2S)-2-hydroxycyclohexyl)-7-methyl-6-((6-methylpyridin-3-yl)methyl)-2,3-dihydro-4H-1,3-benzoxazin-4-one] |
| 99 | 0.017 | Cc1c(Cc2ccc(Cl)nc2)cc2c(c1C)OCN([C@H]1COCC[C@@H]1O)C2=O (relative stereo) [Example 31, 1,5-anhydro-2-(6-((6-chloropyridin-3-yl)methyl)-7,8-dimethyl-4-oxo-2H-1,3-benzoxazin-3(4H)-yl)-2,4-dideoxy-threo-pentitol] |
| 93 | 0.09 | Cc1cc2c(cc1Cc1ccc(-c3cn(C)nc3C)nc1)C(=O)N(CC1CCCO1)CO2 (stereo not shown) [Example 82, 6-((6-(1,3-dimethyl-1H-pyrazol-4-yl)pyridin-3-yl)methyl)-7-methyl-3-(tetrahydrofuran-2-ylmethyl)-2,3-dihydro-4H-1,3-benzoxazin-4-one] |
| 88 | 0.0015 | Cc1c(Cc2ccc(-n3ccnc3)nc2)cc2c(c1Cl)OCN([C@H]1CCC[C@@H]1O)C2=O (relative stereo) [Example 39, 8-chloro-3-(trans-2-hydroxycyclopentyl)-6-((6-(1H-imidazol-1-yl)pyridin-3-yl)methyl)-7-methyl-2,3-dihydro-4H-1,3-benzoxazin-4-one] |
| 114 | 0.002 | Cc1c(Cc2ccc(-n3cccn3)cc2)cc2c(c1C)OCN([C@H]1COCC[C@@H]1O)C2=O [Example 23, 3-[(3S,4S)-4-hydroxytetrahydro-2H-pyran-3-yl]-7,8-dimethyl-6-[4-(1H-pyrazol-1-yl)benzyl]-2,3-dihydro-4H-1,3-benzoxazin-4-one] |
| 104 | 0.039 | Cc1ccc(Cc2cc3c(cc2C)OCN([C@H]2CCCC[C@@H]2O)C3=O)cn1 (relative stereo) [Example 33, 3-(trans-2-hydroxycyclohexyl)-7-methyl-6-((6-methylpyridin-3-yl)methyl)-2,3-dihydro-4H-1,3-benzoxazin-4-one] |
| 112 | 0.027 | COc1ccc(Cc2cc3c(c(C)c2C)OCN([C@H]2COCC[C@@H]2O)C3=O)cc1 (single isomer, unassigned) [Example 17, 1,5-anhydro-2,4-dideoxy-2-(6-(4-methoxybenzyl)-7,8-dimethyl-4-oxo-2H-1,3-benzoxazin-3(4H)-yl)-threo-pentitol (optical isomer)] |
| 93 | 0.0024 | O=C1c2cc(Cc3ccc(Cl)nc3)c3ccccc3c2OCN1[C@H]1CCC[C@@H]1O [Example 43, 6-((6-chloropyridin-3-yl)methyl)-3-((1S,2S)-2-hydroxycyclopentyl)-2,3-dihydro-4H-naphtho[2,1-e][1,3]oxazin-4-one] |
| 106 | 0.014 | COc1ccc(Cc2cc3c(c(C)c2C)OCN([C@H]2COCC[C@@H]2O)C3=O)cn1 [Example 29, 3-((3S,4S)-4-hydroxytetrahydro-2H-pyran-3-yl)-6-((6-methoxypyridin-3-yl)methyl)-7,8-dimethyl-2,3-dihydro-4H-1,3-benzoxazin-4-one] |

From patent publication US10323027B2, “2,3-dihydro-4H-1,3-benzoxazin-4-one derivatives as modulators of cholinergic muscarinic M1 receptor” (Takeda Pharmaceutical Company Limited, priority 2015, dated 2019)
